Experimental data as given in patent US20150272911A1, “Use of AMPK Inducers and Metformin for the Treatment of Fibromyalgia” (priority 2014, published 2015).

How the values were obtained:
AMPK phosphorylation = test: Mouse model of AMPK activation deficiency induced by compound C: biochemical parameters; format: in vivo, mice of the Swiss strain; conditions: for ATP (deficit) / citrate synthase (mitochondrial mass) / lipid peroxidation / activation of IL-1β interleukin of the inflammasome / activation of IL-18 interleukin of the inflammasome: mice, compound C 20 mg/kg/day i.p., alone or with metformin; for ATP (deficit): FIG. 5; for citrate synthase (mitochondrial mass): FIG. 6; for lipid peroxidation / activation of IL-1β interleukin of the inflammasome / activation of IL-18 interleukin of the inflammasome: serum; for lipid peroxidation: FIG. 7; for activation of IL-1β interleukin of the inflammasome / activation of IL-18 interleukin of the inflammasome: FIG. 8
Description: The mice were injected by intraperitoneal route once a day, the final daily dose being 20 mg/kg/day. Another group of mice received the treatment with Compound C in addition to Metformin. The treatment is performed until the day the animals are sacrificed. […]
Blood: The blood will be the starting-point to obtain serum or isolate leukocytes. The following will be measured in the serum: glucose, triglycerides, cholesterol, lactate, proteins, redox potential, protein oxidation, etc. The following will be measured in the leukocytes: ATP, inflammatory interleukins, oxidative stress, mitochondrial mass.

mice [1] = test: Symptoms of fibromyalgia (pain, depression) in mice with AMPK inhibited by compound c; format: in vivo; conditions: then metformin
Excerpt: In order to monitor the effect of metformin in an in vivo model of AMPK deficit, we will use mice that will be administered compound c, a specific inhibitor of AMPK phosphorylation, in time, and their behaviour will be characterised one week before starting the administrations of compound c and 7 days after the first administration. […] Prior to beginning the administration of compound c and metformin, and following the pain behaviour tests, other behavioural tests will be conducted which show other symptoms presented by patients with fibromyalgia: […]

mice [2] = conditions: after first five days of compound c; FIG. 10
Excerpt: Following the first five days of administration of compound c, behavioural determinations were made in order to evaluate the symptoms. […] Another symptom associated with pain in fibromyalgia is depression.
Depression test: Tail suspension, forced swimming.

mice [3] = test: Hot-plate test (nociception) in mice; format: in vivo; conditions: after first five days of compound c; at Temp.<50° C. and Temp.>50° C.; FIG. 9
Excerpt: Another symptom associated with pain in fibromyalgia is depression.
In order to monitor the effect of metformin in an in vivo model of AMPK deficit, we will use mice that will be administered compound c, a specific inhibitor of AMPK phosphorylation, in time, and their behaviour will be characterised one week before starting the administrations of compound c and 7 days after the first administration. This experimental design will provide us with a view as to how metformin inhibits the effects induced by the deficit of AMPK and its influence on the behaviour of the mice, monitoring, with particular interest, those tests that show an alteration of nociception (hot plate, visceral pain [J Neurochem (2007) 103: 2629-39] and muscle pain [J Neurosci (2007) 27: 10000-6]). Prior to beginning the administration of compound c and metformin, and following the pain behaviour tests, other behavioural tests will be conducted which show other symptoms presented by patients with fibromyalgia: […]

[4] = system: blood mononuclear cells (BMCs) of patients with fibromyalgia; conditions: BMCs of 20 fibromyalgia patients after metformin
Excerpt: (§1) In order to study the role of AMPK phosphorylation in patients with fibromyalgia, AMPK activation was induced with metformin, a potent AMPK stimulator, in the BMCs of 20 patients.
(§2) In order to evaluate the effect of metformin in in vitro models of fibromyalgia, we will use mononuclear cells isolated from patients with fibromyalgia and kept under culture conditions, with RPMI medium with 10% serum and 5% CO2. Parallel to this, skin fibroblasts isolated from patients with fibromyalgia kept under culture with DMEM medium with 20% serum and 5% CO2 will be used. These cultures will enable us to evaluate the toxicity of different doses of metformin and compounds that induce AMPK phosphorylation, through the quantification of apotosis and cell growth, by counting the nuclei of live cells. Once the ideal working dose has been found, below 5 mM, we will be able to quantify the protection against stressful stimuli through the effect of hydrogen peroxide, a very potent free radical. Using flow cytometry, we will evaluate the production of ROS before and after the treatment below 5 mM. Other parameters to be quantified at these doses will be ATP, by means of luminometry, citrate synthase as a marker of mitochondrial mass, by means of enzyme kinetics spectrophotometry, and inflammatory interleukins by means of ELISA.

[5] = neuropathic pain (Russe et al., 2013), adiposis dolorosa (Labuzek et al., 2013); cited from earlier work
[6] = system: inflammasome (IL-1β, IL-18) in BMCs of patients with fibromyalgia; test: IL-1β and IL-18 inflammasome interleukins in cells of fibromyalgia patients; format: cell-based, human
Excerpt: as §1, §2

[7] = system: fibroblasts of patients with fibromyalgia; test: Protection of patient fibroblasts exposed to hydrogen peroxide (cell death); format: cell-based, human; conditions: low doses of hydrogen peroxide with metformin added, FIG. 4
Description: Parallel to this, skin fibroblasts isolated from patients with fibromyalgia kept under culture with DMEM medium with 20% serum and 5% CO2 will be used. […] Once the ideal working dose has been found, below 5 mM, we will be able to quantify the protection against stressful stimuli through the effect of hydrogen peroxide, a very potent free radical. Using flow cytometry, we will evaluate the production of ROS before and after the treatment below 5 mM. Other parameters to be quantified at these doses will be ATP, by means of luminometry, citrate synthase as a marker of mitochondrial mass, by means of enzyme kinetics spectrophotometry, and inflammatory interleukins by means of ELISA.

[8] = BMCs of fibromyalgia patients after metformin, FIG. 3

Compound	ATP (deficit) (AMPK phosphorylation)	citrate synthase (mitochondrial mass) (AMPK phosphorylation)	lipid peroxidation (AMPK phosphorylation)	activation of IL-1β interleukin of the inflammasome (AMPK phosphorylation)	activation of IL-18 interleukin of the inflammasome (AMPK phosphorylation)	symptoms typical of fibromyalgia, such as pain or depression (mice [1])	paralysis (immobilisation) in tail suspension test, reflecting depression (mice [2])	response latency to the thermal stimulus (hot-plate test) (mice [3])	inhibition of the inflammasome (AMPK phosphorylation; mice with inhibited AMPK)	ATP levels ([4]; FIG. 1)	mitochondrial ROS ([4]; FIG. 2)	analgesic effect [5]	IL-1β interleukin of the inflammasome [6, 8]	IL-18 interleukin of the inflammasome [6, 8]	inhibition of the inflammasome ([6]; cells of patients with fibromyalgia)	cell death [7]
c1cc(-c2cnn3cc(-c4ccc(OCCN5CCCCC5)cc4)cnc23)ccn1 [compound c]	induced alterations	induced alterations	induced alterations	induced alterations	induced alterations	presented symptoms typical of fibromyalgia	greater paralysis	decrease in the response latency	–	–	–	–	–	–	–	–
CN(C)C(=N)N=C(N)N [metformin]	restored	restored	restored	restored	restored	recovery in the symptoms	–	–	demonstrated inhibition of the inflammasome	significant recovery	decrease	strong analgesic effect	decrease	decrease	demonstrated inhibition of the inflammasome	significantly reduced
